Assay results taken from patent publication US8017786B2, “Substituted β-phenyl-α-hydroxy-propanoic acid, synthesis method and use thereof” (Northwest University, priority 2006, dated 2011).

System: anesthetized rats
Test: Blood pressure and left ventricular function of anesthetized rats
Assay type: in vivo, rat
Parameters: contractive pressure, change ratio: unit not given here
Procedure: All data were input into PowerLab/8Sp data acquisition and processing system via RM-6000 multi-channel polygraph, and recorded, analyzed and processed by PowerLab/8Sp.
The abdomen was opened 1.5 cm below xiphoid bone to isolate duodenum, a small incision was formed on the duodenum away from blood vessels by ophthalmic scissors, a catheter was inserted and the incision was fixed by suture for administration. After the end of operation and a further waiting period of 30 min, normal data were recorded once the indexes to be monitored were stable.
Test drugs were duodenally administered via the catheter, and the indexes were monitored 5, 15, 30, 60, 90 and 120 min after the administration. The change ratios of the indexes were calculated in accordance with the following formula, and were used for statistic analysis among groups.

[1] = 9 mg/kg duodenal, 60 min after administration
[2] = 9 mg/kg duodenal, 90 min after administration
[3] = 9 mg/kg duodenal, 120 min after administration
[4] = 9 mg/kg duodenal, before administration
[5] = 18 mg/kg duodenal, 5 min after administration
[6] = 18 mg/kg duodenal, 15 min after administration
[7] = 18 mg/kg duodenal, 30 min after administration
[8] = 18 mg/kg duodenal, 60 min after administration
[9] = 18 mg/kg duodenal, 90 min after administration
[10] = 18 mg/kg duodenal, 120 min after administration
[11] = 18 mg/kg duodenal, before administration
[12] = 18 mg/kg, significant at 15, 30, 60, 90 and 120 min

## CC1(C)C2CCC1(C)C(OC(=O)C(O)Cc1ccc(O)c(O)c1)C2 (stereo not drawn) [bornyl salvianate ester, bornyl β-(3,4-dihydroxylphenyl)-α-hydroxylpropionate ester]
[1]
  contractive pressure, change ratio: −12.63 ± 11.39
  diastolic pressure: 59.10 ± 16.07 mmHg
  diastolic pressure, change ratio: −14.30 ± 13.75
  heart rate: 359.61 ± 39.30 beat/min
  heart rate, change ratio: −4.52 ± 7.13
  left intraventricular pressure: 119.77 ± 23.09 mmHg
  left intraventricular pressure, change ratio: −6.84 ± 8.75
  mean arterial pressure: 77.89 ± 18.11 mmHg
  mean arterial pressure, change ratio: −13.46 ± 12.43
[2]
  change-rate of left intraventricular pressure MAX: 5113.5 ± 1356.4 mmHg/s
  change-rate of left intraventricular pressure MAX, change ratio: −6.4 ± 13.2
  change-rate of left intraventricular pressure, -MAX: −3629.7 ± 1013.3 mm/Hg/s
  change-rate of left intraventricular pressure, -MAX, change ratio: −7.2 ± 13.3
  contractive pressure: 120.90 ± 31.83 mmHg
  contractive pressure, change ratio: −8.80 ± 16.65
  diastolic pressure: 63.12 ± 19.81 mmHg
  diastolic pressure, change ratio: −8.83 ± 17.11
  heart rate: 354.38 ± 62.30 beat/min
  heart rate, change ratio: −4.13 ± 17.94
  left intraventricular pressure: 122.40 ± 26.58 mmHg
  left intraventricular pressure, change ratio: −4.88 ± 11.37
  mean arterial pressure: 82.38 ± 23.18 mmHg
  mean arterial pressure, change ratio: −8.77 ± 16.66
[3]
  change-rate of left intraventricular pressure MAX: 4959.8 ± 1399.0 mmHg/s
  change-rate of left intraventricular pressure MAX, change ratio: −9.7 ± 11.2
  change-rate of left intraventricular pressure, -MAX: −3541.7 ± 917.7 mm/Hg/s
  change-rate of left intraventricular pressure, -MAX, change ratio: −9.2 ± 11.3
  contractive pressure: 120.85 ± 32.13 mmHg
  contractive pressure, change ratio: −9.19 ± 14.65
  diastolic pressure: 62.58 ± 22.20 mmHg
  diastolic pressure, change ratio: −10.28 ± 17.60
  heart rate: 354.09 ± 47.98 beat/min
  heart rate, change ratio: −4.62 ± 12.34
  left intraventricular pressure: 121.85 ± 26.36 mmHg
  left intraventricular pressure, change ratio: −5.47 ± 9.76
  mean arterial pressure: 82.00 ± 25.04 mmHg
  mean arterial pressure, change ratio: −9.71 ± 15.95
[4]
  change-rate of left intraventricular pressure MAX: 5435.8 ± 1200.0 mmHg/s
  change-rate of left intraventricular pressure, -MAX: −3881.3 ± 735.6 mm/Hg/s
  contractive pressure: 132.26 ± 20.00 mmHg
  diastolic pressure: 69.21 ± 15.19 mmHg
  heart rate: 373.43 ± 41.28 beat/min
  left intraventricular pressure: 128.29 ± 18.38 mmHg
  mean arterial pressure: 90.23 ± 16.25 mmHg
9 mg/kg, significant at 15 and 60 min
  mean arterial pressure, systolic pressure and diastolic pressure (in words): exhibited a decrease tendency
9 mg/kg, significant at 60 and 120 min
  dp/dt (in words): exhibited a decrease tendency
9 mg/kg, significant at 60 min
  left intraventricular pressure (in words): exhibited a decrease tendency
[5]
  change-rate of left intraventricular pressure MAX: 5694.7 ± 1264.7 mmHg/s
  change-rate of left intraventricular pressure MAX, change ratio: −0.3 ± 9.3
  change-rate of left intraventricular pressure, -MAX: −4103.4 ± 981.2 mm/Hg/s
  change-rate of left intraventricular pressure, -MAX, change ratio: 0.0 ± 7.8
  contractive pressure: 128.34 ± 28.96 mmHg
  contractive pressure, change ratio: −0.06 ± 12.42
  diastolic pressure: 72.55 ± 16.58 mmHg
  diastolic pressure, change ratio: −1.00 ± 14.79
  heart rate: 358.56 ± 44.88 beat/min
  heart rate, change ratio: 0.22 ± 4.94
  left intraventricular pressure: 131.90 ± 18.96 mmHg
  left intraventricular pressure, change ratio: −0.01 ± 7.29
  mean arterial pressure: 91.15 ± 20.31 mmHg
  mean arterial pressure, change ratio: −0.58 ± 13.53
[6]
  change-rate of left intraventricular pressure MAX: 5470.3 ± 1416.7 mmHg/s
  change-rate of left intraventricular pressure MAX, change ratio: −4.7 ± 11.8
  change-rate of left intraventricular pressure, -MAX: −3991.9 ± 948.6 mm/Hg/s
  change-rate of left intraventricular pressure, -MAX, change ratio: −2.4 ± 9.3
  contractive pressure: 120.90 ± 26.54 mmHg
  contractive pressure, change ratio: −5.49 ± 14.53
  diastolic pressure: 68.87 ± 14.57 mmHg
  diastolic pressure, change ratio: −5.45 ± 15.82
  heart rate: 356.00 ± 40.82 beat/min
  heart rate, change ratio: −0.07 ± 9.93
  left intraventricular pressure: 126.28 ± 18.51 mmHg
  left intraventricular pressure, change ratio: −4.15 ± 8.95
  mean arterial pressure: 86.21 ± 18.29 mmHg
  mean arterial pressure, change ratio: −5.52 ± 14.99
[7]
  change-rate of left intraventricular pressure MAX: 5186.9 ± 1177.3 mmHg/s
  change-rate of left intraventricular pressure MAX, change ratio: −8.9 ± 11.5
  change-rate of left intraventricular pressure, -MAX: −3923.8 ± 879.8 mm/Hg/s
  change-rate of left intraventricular pressure, -MAX, change ratio: −3.9 ± 8.2
  contractive pressure: 117.76 ± 22.90 mmHg
  contractive pressure, change ratio: −7.74 ± 12.22
  diastolic pressure: 66.68 ± 11.95 mmHg
  diastolic pressure, change ratio: −7.68 ± 16.90
  heart rate: 348.07 ± 39.21 beat/min
  heart rate, change ratio: −2.01 ± 12.45
  left intraventricular pressure: 124.81 ± 18.94 mmHg
  left intraventricular pressure, change ratio: −5.46 ± 7.09
  mean arterial pressure: 83.71 ± 15.31 mmHg
  mean arterial pressure, change ratio: −7.79 ± 14.45
[8]
  change-rate of left intraventricular pressure MAX: 4905.3 ± 1047.7 mmHg/s
  change-rate of left intraventricular pressure MAX, change ratio: −12.4 ± 18.7
  change-rate of left intraventricular pressure, -MAX: −3744.3 ± 851.5 mm/Hg/s
  change-rate of left intraventricular pressure, -MAX, change ratio: −7.9 ± 14.0
  contractive pressure: 106.97 ± 32.22 mmHg
  contractive pressure, change ratio: −16.34 ± 19.90
  diastolic pressure: 60.98 ± 16.13 mmHg
  diastolic pressure, change ratio: −15.66 ± 21.14
  heart rate: 357.22 ± 47.10 beat/min
  heart rate, change ratio: 0.39 ± 13.05
  left intraventricular pressure: 120.67 ± 23.43 mmHg
  left intraventricular pressure, change ratio: −8.71 ± 11.64
  mean arterial pressure: 76.31 ± 21.36 mmHg
  mean arterial pressure, change ratio: −16.01 ± 20.44
[9]
  change-rate of left intraventricular pressure MAX: 4676.5 ± 941.1 mmHg/s
  change-rate of left intraventricular pressure MAX, change ratio: −16.7 ± 15.5
  change-rate of left intraventricular pressure, -MAX: −3659.3 ± 806.3 mm/Hg/s
  change-rate of left intraventricular pressure, -MAX, change ratio: −9.2 ± 16.9
  contractive pressure: 104.23 ± 32.16 mmHg
  contractive pressure, change ratio: −18.68 ± 18.21
  diastolic pressure: 60.29 ± 15.88 mmHg
  diastolic pressure, change ratio: −16.74 ± 18.37
  heart rate: 355.33 ± 9.61 beat/min
  heart rate, change ratio: −0.44 ± 6.91
  left intraventricular pressure: 117.91 ± 22.68 mmHg
  left intraventricular pressure, change ratio: −10.81 ± 11.60
  mean arterial pressure: 74.94 ± 21.07 mmHg
  mean arterial pressure, change ratio: −17.64 ± 18.17
[10]
  change-rate of left intraventricular pressure MAX: 5012.6 ± 777.5 mmHg/s
  change-rate of left intraventricular pressure MAX, change ratio: −10.9 ± 12.4
  change-rate of left intraventricular pressure, -MAX: −3692.1 ± 863.3 mm/Hg/s
  change-rate of left intraventricular pressure, -MAX, change ratio: −8.8 ± 16.9
  contractive pressure: 113.34 ± 24.47 mmHg
  contractive pressure, change ratio: −10.88 ± 16.04
  diastolic pressure: 61.54 ± 13.73 mmHg
  diastolic pressure, change ratio: −14.64 ± 19.58
  heart rate: 357.68 ± 53.26 beat/min
  heart rate, change ratio: 0.28 ± 12.04
  left intraventricular pressure: 119.85 ± 22.26 mmHg
  left intraventricular pressure, change ratio: −9.13 ± 13.16
  mean arterial pressure: 78.81 ± 17.04 mmHg
  mean arterial pressure, change ratio: −12.96 ± 17.66
[11]
  change-rate of left intraventricular pressure MAX: 5695.0 ± 1086.8 mmHg/s
  change-rate of left intraventricular pressure, -MAX: −4092.0 ± 905.4 mm/Hg/s
  contractive pressure: 128.25 ± 23.86 mmHg
  diastolic pressure: 73.04 ± 11.87 mmHg
  heart rate: 357.28 ± 36.29 beat/min
  left intraventricular pressure: 131.93 ± 16.79 mmHg
  mean arterial pressure: 91.44 ± 15.44 mmHg
[12]
  dp/dt (in words): significantly decreased
  left intraventricular pressure (in words): significantly decreased
18 mg/kg, significant at 15, 60, 90 and 120 min
  mean arterial pressure, systolic pressure and diastolic pressure (in words): significantly decreased
